The values that follow are results of earlier work, collected in patent publication US7141382B1, “Methods for detection of IL-18 as an early marker for diagnosis of acute renal failure and predictor of mortality” (priority 2004, dated 2006).

Where two headings read alike, the source gives them in different places.

The series has as its system freshly isolated proximal tubules from C57BL/6 mice. As to conditions: P<0.01 vs. hypoxia, n=6.

On to `CC(C)[C@H](NC(=O)c1ccc2ccccc2n1)C(=O)N[C@@H](CC(=O)O)C(=O)COc1c(F)cccc1F` [OPH-001], for which the LDH release (25 minutes of hypoxic injury, hypoxic tubules preincubated with OPH-001 (100 μM), normoxic 11%±1%, vehicle (DMSO) 38%±6%) is 22%±1%.

Take “recombinant IL-18: exogenous recombinant IL-18 added to the proximal tubule suspension”: the LDH release (sublethal (12 minutes) hypoxia, tubules preincubated with recombinant IL-18 (1 μg per 6 ml of tubule suspension), normoxic 10%±1%, vehicle (saline) 13%±1%) was 18%±1%.
